Laboratory results published in patent publication US4795639A, “Potentiating formulations” (priority 1971, dated 1989).
Values joined by “and” are separate entries in the source; they are usually repeats but may differ in a detail not shown here. Equal entries are not always repeated.

Tests used:
HMPPS and `synthetase` = assay: control tubes with source of both HMPPS and `synthetase`, labelled pAB, chromatographic analysis; assay type: biochemical, E. coli; details: 1 × 10^-5 M
Procedure: Control tubes 10 to 12 include a source of both HMPPS and synthetase, unlabelled ATP, 0.1M MgCl2.6H2 O and labelled pAB.
Two control test tubes were prepared, each containing ATP (10 μl, 0.1M), MgCl2.6H2 O (10 μl, 0.1M), dithiothreitol (20 μl, 0.1M) tris buffer (20 μl, 0.4M, pH 8.3), pAB-C^14 (10 μl, 0.4 mM), and 20 μl of a solution containing HMPPS and `synthetase` of known activity. The test compound was added to the second of these two tubes up to a final concentration of 10^-5 M, and both tubes were made up with distilled water to 200 μl.
All seven tubes were then incubated for 30 minutes at 37° C., chilled on ice and then these, together with control tubes 10 to 12 from part (a), were chromatographically analysed as follows:
100 μl of the contents of each of the tubes was spotted onto Whatman No. 3 MM chromatography paper (2×20 cm) at the `origin`, the run descending in a Sorenson buffer of potassium and sodium phosphates (0.1M, pH 7.0) for 10 to 15 cm.

[1] = tested on: Staphylococcus aureus CN 491; assay: testing discs on standard nutrient medium; assay type: cell-based; details: Staphylococcus aureus, CN491; read-out: Size of zone in cm (×6 magnification)
Escherichia coli CN 314 = assay: testing discs on standard nutrient medium; assay type: cell-based; details: Escherichia coli, CN314; read-out: Size of zone in cm (×6 magnification)
E. acervulina = assay: coccidiosis screening test in chicks, E. acervulina; assay type: in vivo
Procedure: (§1) "Screening tests" were performed to establish the effectiveness of the compounds of formula (I) both alone and in combination with a competitor and or an inhibitor and to determine the most useful levels of relative concentrations of each component in combatting or suppressing coccidiosis.
Groups of Ranger cockerels, housed in small, heated cages with wire floors situated in enironmentally controlled isolation rooms, were infected orally with sporulated oocysts of the Eimeria spp such as E. tenella or E. acervulina. The appropriate test compound(s), (DMHP, sulphaquinoxaline (SQX) or diaveridine (DV) or any combination of these) were incorporated in a small quantity of specially formulated laboratory ration deficient in Vitamin K (`L.D.4 mash`), as a 1/10 pre-mix, which was then mixed into the diet on a horizontal roller drum mixed and administered to groups of chicks one day prior to infection, leaving some groups as untreated controls. […]
(§2) The amount of damage, marked by lesions in the caecal walls was investigated in those chicks that died during the course of the experiment, and in those sacrificed on the final day of administration, and compared with the untreated controls as a basis for the determination of therapeutic activity. In addition the mortality rate and the percentage weight gains in the various groups were assessed. […]

Proteus vulgaris CN 329 = assay: testing discs on standard nutrient medium; assay type: cell-based; details: Proteus vulgaris, CN329; read-out: Size of zone in cm (×6 magnification)
E. tenella = assay: coccidiosis screening test in chicks, E. tenella; assay type: in vivo, Eimeria tenella
Procedure: as §1
Groups of Ranger cockerels, housed in small, heated cages with wire floors situated in enironmentally controlled isolation rooms, were infected orally with sporulated oocysts of the Eimeria spp such as E. tenella or E. acervulina. The appropriate test compound(s), (DMHP, sulphaquinoxaline (SQX) or diaveridine (DV) or any combination of these) were incorporated in a small quantity of specially formulated laboratory ration deficient in Vitamin K (`L.D.4 mash`), as a 1/10 pre-mix, which was then mixed into the diet on a horizontal roller drum mixed and administered to groups of chicks one day prior to infection, leaving some groups as untreated controls. Administration was continued for several days, for example about 8 or 9 days.
as §2, with “assessed. A marked or definite effect of the administered drug could be recognised even when the mortality rates were similar or identical, since the increase in the weight gains and the reduction of the extension of lesions indicated by the lesion score, is characteristic of an improvement.” for “assessed.”
4:1 sulphaquinoxaline/diaveridine mixtures at levels of 80/20, 60/15, 40/10 and 20/5 p.p.m. were administered alone and in combination with a wide range of low concentrations of DMHP to the birds.
The results of these screening tests are set forth in Table 4 showing the concentration of the various component compounds in parts per million of the bird's diet, the mortality from coccidiosis, the percentage weight gain, the lesion score the oocyst output, and the activity. The caecal lesion index is calculated using a score system where: […]
In addition a score of 4 is assigned to any bird that dies of coccidiosis during the experiment. [formula] In the activity column, +++, ++, +, ± and - relate respectively to very high, high, slight, doubtful and nil activity of the test drug against the Eimeria infection.

[2] = tested on: Pseudomonas aeruginosa CN 200; assay: testing discs on standard nutrient medium; assay type: cell-based; details: Pseudomonas aeruginosa, CN200; read-out: Size of zone in cm (×6 magnification)

Compound: CC1(C)Nc2nc(N)nc(O)c2N=C1CO [DMHP, 2-amino-4-hydroxy-6-hydroxymethyl-7,7-dimethyl-7,8-dihydropteridine]
- % Inhibn. (HMPPS and `synthetase`; Table 1 control tube 12): 79%
- % Inhibn. (HMPPS and `synthetase`; Table 2 control tube 7): 83%
- zone of inhibition at 100 µg/disc [1]: 0 mm
- zone of inhibition at 100 µg/disc (Escherichia coli CN 314): 0 mm
- Total Oocysts × 10^6 Days 5 & 6 (E. acervulina; Expt. 8, 5,000,000 oocysts, SQX/DV/DMHP p.p.m: b497-499 -/-/30, 10, 5, b500 10/10/-, b502 10/10/30, b504 10/10/10, b506 10/10/5): 0.0 × 10^6
- activity alone against moderate infection with E. acervulina (E. acervulina; concentrations of 250 and 90 p.p.m): active alone
- zone of inhibition at 100 µg/disc (Proteus vulgaris CN 329): 0 mm
- Mortality from Coccidiosis (E. tenella; Expt. 1, 200,000 oocysts, SQX/DV/DMHP p.p.m in diet: -/-/250, -/-/90, -/-/30, -/-/10, 30/30/-, 30/30/250, 30/30/90, 30/30/30, 30/30/10): 1/5 and 2/5 and 3/5
- Mortality from Coccidiosis (E. tenella; Expt. 4, 100,000 oocysts, p.p.m SQX/DV/DMHP: b374 10/-/-, b375 -/20/-, b376 -/-/10, b377 10/-/10, b378 -/20/10, b379 10/20/-, b381 10/20/10, b382 20/-/-, b383 -/40/-, b384 -/-/20, b385 20/-/20, b386 -/40/20, b387 20/40/-, b389 20/40/20): 8/10 and 6/10
- Mortality from Coccidiossis (E. tenella; Expt. 5, 100,000 oocysts, SQX/DV p.p.m with DMHP 40, 20, 10, 5 p.p.m: b409-412 20/20, b413-416 26.7/13.3, b417-420 30/10, b421-424 32/8, b425-428 33.4/6.6, no DMHP: b429 20/20, b430 26.7/13.3, b431 30/10, b432 32/8, b433 33.4/6.6, DMHP alone b434-437 40, 20, 10, 5): 19/20 and 18/20 and 20/20
- activity alone against infection with E. tenella (E. tenella; all levels of concentration tested): inactive
- potentiation of the activity of diaveridine/sulphaquinoxaline mixtures (E. tenella; in many cases by as much as): 3 to 4 fold
- zone of inhibition at 100 µg/disc [2]: 220 mm
